Measurements published in publication PMC9959553, “Promising Antifungal Molecules against Mucormycosis Agents Identified from Pandemic Response Box®: In Vitro and In Silico Analyses” (Journal of Fungi, 2023).

Tested on: R. oryzae UCP1295
Test: Screening of the Pandemic Response Box library at 5 µM
Assay type: cell-based, Rhizopus oryzae
Details: 48 h, Table S1, mean of the four values
Description: Rhizopus oryzae UCP is the most prevalent Mucorales species in human infections and was used as a reference strain to screen the Pandemic Response Box® library. Screening was performed according to Rollin-Pinheiro and colleagues. Each compound was diluted in RPMI 1640 medium (Sigma Chemical Co., St. Louis, MO, USA), supplemented with 2% glucose and buffered with 3-(N-morpholino) propanesulfonic acid (MOPS) (Sigma Chemical Co., St. Louis, MO, USA) (0.165 mol/L, pH 7.2, from here on referred to as ‘supplemented RPMI’) to reach 5 μM in 96-well microtiter plates. Posaconazole (5 μM) and supplemented RPMI containing 1% DMSO were used as controls (both from Sigma Chemical Co., St. Louis, MO, USA). Conidia (2 × 10^5/mL) were added and incubated for 48 h at 37 °C in a 5% CO2 atmosphere. […] An inhibition of at least 60% was defined as the cut-off to select the promising drugs with antifungal activity against the Rhizopus species.

| SMILES | % of growth inhibition, Mean |
| --- | --- |
| C[C@H](c1cccc2ccccc12)N(C)Cc1ccccc1 [MMV1782221] | -14.5% |
| O=S(=O)(Nc1cccc2cccnc12)c1ccccc1 [MMV1578890] | 0.6% |
| CO/N=C(\C(=O)N[C@@H]1C(=O)N2C(C(=O)OCOC(=O)C(C)(C)C)=C(/C=C\c3scnc3C)CS[C@H]12)c1csc(N)n1 [MMV002560] | -6.4% |
| CCOc1ccc(C(=O)NCCc2ccccc2)cc1 [MMV124656] | -37.8% |
| Cn1cc(NC(=O)c2cc(NC(=O)c3ccc(/C=C/c4cnc5ccccc5c4)cc3)cn2C)cc1C(=O)NCCN1CCOCC1 [MMV1634391] | -17.4% |
| COc1nc2ccc(Br)cc2cc1[C@@H](c1ccccc1)[C@@](O)(CCN(C)C)c1cccc2ccccc12 [MMV689758] | -19.9% |
| COCCn1cnc2c(O)nc(Nc3ccccc3)nc21 [MMV1782103] | -15.7% |
| Cc1cc(O)c2c(c1)C(=O)c1c(I)c(O)c(I)c(O)c1C2=O [MMV1581545] | -41.8% |
| Nc1nc(-c2ccccc2)nc2[nH]nc(Nc3ccc(C(F)(F)F)cc3)c12 [MMV1633968] | 4.3% |
| NC[C@H]1OB(O)c2c(OCCCO)cccc21 [MMV1578566] | -20.6% |
| Nc1nc(F)nc2c1ncn2[C@@H]1O[C@H](CO)[C@@H](O)[C@@H]1O [MMV637413] | -6.9% |
| FC(F)(F)c1cc(C(F)(F)F)c2ccc3nc(-c4nnco4)cn3c2n1 [MMV690555] | -25.6% |
| CCCNc1ccc(S(=O)(=O)Nc2cc(C)on2)cc1 [MMV1782216] | -18.8% |
| c1ccc(-c2nnc3c4ccccc4c(N4CCNCC4)nn23)cc1 [MMV1581551] | -11.4% |
| CCNC(=O)Nc1cn2c(-c3ncc(CC)cn3)cc(-c3cccnc3)cc2n1 [MMV1782403] | -42.7% |
| O=C(O)COc1cccc2c1CC[C@](O)(COC(=O)N(c1ccccc1)c1ccccc1)C2 [MMV1782352] | -13.6% |
| NS(=O)(=O)c1ccc(NC(=O)NC(c2ccccc2)c2ccccc2)cc1 [MMV1579776] | -24.2% |
| CCNC(=O)Nc1cc2c(-c3ccnc(C)c3)ccc(CNC(=O)OC)c2cn1 [MMV1634390] | -15.7% |
| Cc1nc2ccc(Cl)cc2c(-c2ccccc2)c1CC(=O)O [MMV1580801] | -8.7% |
| CCCCOC(=O)Nc1cc2nc(C3CCCCC3)[nH]c2cc1N(CC)CC [MMV1578842] | -0.4% |
| CN(C)[C@@H]1C(=O)C(C(N)=O)=C(O)[C@@]2(O)C(=O)C3=C(O)c4c(O)c(NC(=O)CN5CCCC5)cc(F)c4C[C@H]3C[C@@H]12.Cl.Cl [MMV1578574] | -44.3% |
| O=S(=O)(Nc1ccc(-n2cccc2)cc1)c1ccc(Cl)c(Cl)c1 [MMV1505642] | -4.1% |
| O=C(NCc1ccccc1Cl)c1cnc2ccccc2n1 [MMV1230557] | -3.7% |
| COc1ccc(C)cc1NC(=O)c1ccc(S(=O)(=O)N2CCCCC2)cc1 [MMV1578579] | -3.3% |
| CCc1cc(O)c(Oc2ccc(C(N)=O)cc2F)cc1F [MMV1578564] | -17.4% |
| O=C(N[C@H](CCS)C(=O)N[C@H](Cc1ccccc1)C(=O)O)c1cc2ccccc2[nH]1 [MMV1581557] | 0.3% |
| CC[C@@]1(O)C(=O)OCc2c1cc1n(c2=O)Cc2cc3c([N+](=O)[O-])cccc3nc2-1 [MMV1580796] | -1.7% |
| O=C(NNC(=S)Nc1ccc(Cl)cc1)c1ccncc1 [MMV1782227] | -24.0% |
